# Like-named read-outs stand apart in the source and are kept apart here.
# Tests used:
# [1] = system: members of the family dCache_1PU (11 soluble LBDs); assay: Thermal shift ligand screening of all dCache_1PU proteins (Biolog arrays PM3B and PM5); assay type: binding
# [2] = system: R5 (WP_131005693-LBD); assay: Microcalorimetric titration (ITC) of the R5 LBD with ligands; assay type: binding, Clostridioides difficile; settings: 25 °C, pH 7.0
# [3] = target: R4 (WP_199478134-LBD); assay type: binding, Marinomonas spartinae; settings: ITC, 25 °C, pH 8.0; read-out: Dissociation constant, R4
# [4] = target: R14 (WP_021170906-LBD) (Sporomusa ovata, UniProt A0A0U1L1T7); assay: Microcalorimetric titration (ITC) of the R14 LBD with ligands; assay type: binding; settings: for Kd: 25 °C, read-out: Dissociation constant, R14
# R14 (WP_021170906-LBD), sequence (A0A0U1L1T7 entry or part of it): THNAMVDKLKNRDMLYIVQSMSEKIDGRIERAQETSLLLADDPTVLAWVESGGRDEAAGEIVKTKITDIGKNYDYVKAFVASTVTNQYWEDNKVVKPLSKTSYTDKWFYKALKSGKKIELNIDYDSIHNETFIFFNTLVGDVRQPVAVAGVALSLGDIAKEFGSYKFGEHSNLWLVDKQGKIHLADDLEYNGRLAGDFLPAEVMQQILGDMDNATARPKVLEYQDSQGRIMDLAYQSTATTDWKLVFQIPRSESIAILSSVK
# [5] = target: R15 (WP_207952809-LBD) (Paenibacillus agricola, UniProt A0ABX0IZG8); assay: Microcalorimetric titration (ITC) of the R15 LBD with ligands; assay type: binding, Paenibacillus sp. S3N08; settings: 25 °C, pH 7.0
# R15 (WP_207952809-LBD), sequence (A0ABX0IZG8 entry or part of it): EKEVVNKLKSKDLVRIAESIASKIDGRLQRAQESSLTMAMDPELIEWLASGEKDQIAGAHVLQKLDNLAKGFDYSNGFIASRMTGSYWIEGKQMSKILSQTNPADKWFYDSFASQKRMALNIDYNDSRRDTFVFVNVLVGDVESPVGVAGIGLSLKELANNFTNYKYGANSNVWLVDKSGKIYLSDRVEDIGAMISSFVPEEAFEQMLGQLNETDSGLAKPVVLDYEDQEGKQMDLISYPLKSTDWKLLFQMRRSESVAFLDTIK
# [6] = system: R11 (WP_162024566-LBD); assay: Microcalorimetric titration (ITC) of the R11 LBD with ligands; assay type: binding, Lentimonas sp. CC4; settings: 25 °C; for Binding in microcalorimetric titration, R11: pH 7.0
# [7] = system: R13 (WP_167859577-LBD); assay type: binding, Paenibacillus cymbidii; settings: change in Tm, threshold 2 °C; 2 mM ligand (Supplementary Fig. 7)
# [8] = target: R1 (WP_219614703-LBD) (Aeromonas salmonicida, UniProt T0PLV6); assay: Microcalorimetric titration (ITC) of the R1 LBD with ligands; assay type: binding; settings: for Kd: 25 °C, pH 7.0, read-out: Dissociation constant, R1
# [9] = system: R5 (WP_131005693-LBD); assay: Thermal shift assay of the R5 LBD; assay type: binding, Clostridioides difficile; settings: change in Tm, threshold 2 °C
# [10] = system: R10 (WP_110129388-LBD); assay type: binding, Coraliomargarita sinensis; settings: change in Tm, threshold 2 °C; cells left empty in Table 3
# [11] = target: R6 (WP_185834821-LBD) (Vibrio cholerae, UniProt Q9KPY8); assay: Thermal shift assay of the R6 LBD; assay type: binding; settings: change in Tm, threshold 2 °C
# [12] = ITC, One binding site model, * = hyperbolic curve
Compound,Shift in the thermal shift assays [1],Kd [3] [µM],Kd ([4]; ITC) [µM],"N value, R14 [4, 12]","Binding in microcalorimetric titration, R15 [5]","Binding in microcalorimetric titration, R11 [6]","Binding in thermal shift assay, R13 [7]",Kd ([8]; ITC) [µM],"Binding in thermal shift assay, R5 [9]",other results
NCCO [ethanolamine],did not produce any significant shift,,,,,,,,,
c1ncc2nc[nH]c2n1 [Purine],,2.3 ± 0.3,94 ± 19,0.19,Nb^a,Nb^a,"Nts^b (no binding observed in thermal shift assays, i.e., compounds caused changes in the midpoint of protein unfolding (Tm) of less than 2 °C)",,,"Binding in microcalorimetric titration, R5 [2]: Nb^a"
Nc1cc[nH]c(=O)n1 [Cytosine],,74 ± 15,105 ± 20,0.46,Nb^a,Nb^a,"Nts^b (no binding observed in thermal shift assays, i.e., compounds caused changes in the midpoint of protein unfolding (Tm) of less than 2 °C)",1460,"Nts^b (no binding observed in thermal shift assays, i.e., compounds caused changes in the midpoint of protein unfolding (Tm) of less than 2 °C)","N value, R1 [8, 12]: 0.21"
Nc1ncnc2c1ncn2[C@@H]1O[C@H](CO)[C@@H](O)[C@H]1O [Adenosine],,88 ± 12,17 ± 4.1,,Nb^a,Nb^a,"Nts^b (no binding observed in thermal shift assays, i.e., compounds caused changes in the midpoint of protein unfolding (Tm) of less than 2 °C)",1.1 ± 0.1,"Nts^b (no binding observed in thermal shift assays, i.e., compounds caused changes in the midpoint of protein unfolding (Tm) of less than 2 °C)","N value, R1 [8]: 0.13; Binding in thermal shift assay, R10 (Supplementary Table 3) [10]: Nts (No binding observed in thermal shift assays, i.e. compounds caused changes in the midpoint of protein unfolding (Tm) of less than 2 ºC); Binding in thermal shift assay, R6 [11]: Nts^b (no binding observed in thermal shift assays, i.e., compounds caused changes in the midpoint of protein unfolding (Tm) of less than 2 °C); N value, R14 [4]: 0.41"
CN [methylamine],did not produce any significant shift,,,,,,,,,
NC(=O)CC[C@H](N)C(=O)O [L-Gln],did not produce any significant shift,,,,,,,,,
N[C@@H](Cc1c[nH]c2ccccc12)C(=O)O [L-Trp],did not produce any significant shift,,,,,,,,,
C[N+](C)(C)CCO [choline],did not produce any significant shift,,,,,,,,,
Cc1c[nH]c(=O)[nH]c1=O [Thymine],,21 ± 0.4,32 ± 8.9,0.99,Nb^a,,"Nts^b (no binding observed in thermal shift assays, i.e., compounds caused changes in the midpoint of protein unfolding (Tm) of less than 2 °C)",595 ± 47,"Nts^b (no binding observed in thermal shift assays, i.e., compounds caused changes in the midpoint of protein unfolding (Tm) of less than 2 °C)","N value, R1 [8, 12]: 0.20; Kd ([6]; pH 7.0, 1 mM β-mercaptoethanol, read-out: Dissociation constant, R11): 854 ± 254 µM"
